Data as given in publication PMC12384620, “Hit-to-Lead Studies of Pyrazinylpiperazines against Visceral Leishmaniasis: Pharmacokinetic Profile and In Vivo Efficacy of Potent Compounds against Leishmania infantum” (ACS Pharmacology & Translational Science, 2025).
In brackets after ≈: the same amount, converted by molar mass. Where two headings read alike, the source gives them in different places.

Assays:
L. infantum::tdTomato = type: in vivo, mouse; conditions: for parasitemia reduction in the spleen / parasitemia reduction in the liver: 20 dpi, vs untreated control
Protocol: BALB/c mice (male, 6 to 8 weeks old, 18 to 20 g) were inoculated intravenously (tail vein) with 2 × 10^7 late-log-phase L. infantum promastigotes from Li::tdTomato lines, and randomly assigned into one of the four treatment groups (six mice per group). After 7 days of infection, […] was administered intraperitoneally in a single dose 500 mg/kg/day meglumine antimoniate (Glucantime, Sanofi Medley), both groups treated with 2 received two daily intraperitoneal injections totaling either 50 mg/kg/day or 100 mg/kg/day of 2, and the control group was administered the vehicle solution. For the intraperitoneal injection, 2 was formulated as follows: a stock solution of 2 in DMSO (100 mg/mL) was prepared daily, and a solution of 70% PBS1X, 20% PEG 400 (Polyethylene Glycol 400, Sigma-Aldrich), 0.16% Tween 80 and 10% of 2 (from the stock solution) was prepared. The control group was also administered this solution, replacing 2 with 10% DMSO. All mice were euthanized 3 days after the end of the treatment, and the liver and spleen of each animal were collected.
The number of viable parasites in each organ was determined using a quantitative limiting dilution assay. Briefly, the organs were macerated using an Ultra-Turrax disperser (IKA-Werke GmbH & Co. KG., Staufen, Germany), and a tissue homogenate was obtained with 1 mL of M199 medium. Each tissue homogenate was sequentially diluted (10-fold) in 96-well flat-bottom microtiter black plates and incubated at 26 °C for 10 days. The wells containing motile promastigotes were identified with an inverted microscope (Axiovert 25, Zeiss), and the parasite burden was determined from the highest dilution at which promastigotes had grown after 10 days of incubation.

[1] = test system: L. infantum::tdTomato intracellular amastigotes; assay: Synergism between 2 and Sb^III against intracellular L. infantum amastigotes; type: cell-based, Leishmania infantum
Protocol: Cells derived from the human monocytic strain THP-1 were cultured in complete Rowell Park Memorial Institute (RPMI)-1640 medium (supplemented with 10% fetal bovine serum, 100 U/mL penicillin, and 100 μg/mL streptomycin). Monocytes were differentiated into macrophages by the addition of 20 ng/mL phorbol myristate acetate (PMA). After 72 h, the macrophages (5 × 10^4), in black 96-well microtiter plates (Corning Incorporated, Corning, NY), were infected with Leishmania (Leishmania) infantum (MHOM/BR/1974/PP75) promastigotes expressing red fluorescence protein on the second day of the stationary phase (20 parasites per macrophage) for 4 h. […] To investigate the possibility of synergism between Sb^III and compound 2, […] different concentrations of these drugs were used (1.0, 0.5, 0.2, 0.1, and 0.05 μg/mL), the solutions of Sb^III and 2 being prepared and diluted the day of the assay. The compounds were tested separately and in combination. […] The EC50 values were determined by nonlinear regression using a Variable slope model (log(concentration) vs growth inhibition) with the GraphPadPrism v8.2.0 (CA, USA) software. By normalizing the data as a fractional response, it was possible to perform the calculation using a Bayesian model. The results were compared to each other to determine whether the combination of compounds has a synergistic, antagonistic or additive effect. Controls with uninfected cells, untreated infected cells, infected cells treated with amphotericin B at 0.25 μM (positive control) or DMSO 1% were used. Quadruplicates were run on the same plate, and the experiments were repeated at least once.

[2] = Experimental lipophilicity elog(D) at pH 7.4 by retention time; type: physicochemical; conditions: pH 7.4, chromatographic
Protocol: (§1) The analysis was performed using LC-MS/MS (liquid chromatography-tandem mass spectrometry). The chromatography system used was a Prominence UFLC (Shimadzu Corporation, Kyoto, Japan), interfaced with a LCMS-8045 triple quadrupole mass spectrometer (Shimadzu Corporation, Kyoto, Japan) equipped with an electrospray ionization source (ESI).
For the determination of the distribution coefficient (elog(D)), a methodology based on the retention time of molecules in the stationary phase was used. The chromatogram was achieved on a Supelco Ascentis express RP amide HPLC column (5 cm x 2.1 mm, […]), using 5% methanol in 10 mM ammonium acetate pH 7.4 (A) and 100% methanol (B) as mobile phases. The mobile phase was eluted in binary gradient mode, as follows: 0 min: 95% A; 0.3 min: 100% A; 5.2 min: 0% A; 5.6 min: 0% A; 5.8 min: 100% A; 7.0 min: 100% A. The total run time was 7 min, and 5 μL of each sample were injected. The solutions of tested compounds were prepared at a concentration of 1.0 mg/mL in compound by adding the stock solution to a (1:1) mix of mobile phases A:B (internal standard at 200 nM), and the DMSO concentration was lower than 2%. […]

Kinetic solubility = type: physicochemical; conditions: PBS, 25 °C, kinetic from dmso stock
Protocol: as §1, with “The LC-MS/MS” for “The chromatography”, “used consisted of” for “used was”, “Kyoto, Japan) chromatography system,” for “Kyoto, Japan),”
PBS pH 7.4 or 2.0 (final concentration of 250 μM) was added to each well of the plates, and the DMSO concentration was kept lower than 2.5%. The plates were sealed and shaken for 24 h (200 rpm/25 °C). The precipitates on the incubation plate were removed by centrifugation (15 min/3000 rpm/25 °C), and the supernatant fractions were quantified by LC-MS/MS. An intermediate standard solution diluted at 0.5 mM in acetonitrile:water (1:1) was prepared from a 10 mM standard solution. A calibration curve was prepared for each of the test compounds and controls by diluting several times the intermediate standard solution to reach the desired concentrations of 50, 40, 20, 2, and 1 μM. The resulting equation for the calibration curve (y = mx + b) was used to calculate the experimental concentration values for the compounds. The chromatogram for analysis was achieved on a Supelco Ascentis express C18 column (3 cm x 2.1 mm, […]), using water +0.05% formic acid (A) and acetonitrile +0.05% formic acid (B) as mobile phases. […]

THP-1 cells = test system: THP-1 cells; set-up: method as in SAR previously reported; conditions: ref SAR previously reported; cited from earlier work
[3] = test system: glycogen synthase kinase-3 (GSK-3); set-up: method as in earlier work; conditions: ref previous screening of potential GSK-3 inhibitors among the Leishbox; cited from earlier work

O=C(c1ccc(O)cc1)N1CCN(c2cnccn2)CC1 [Compound 2, (4-Hydroxyphenyl)(4-(pyrazin-2-yl)piperazin-1-yl)methanone]
parasitemia reduction in the spleen (L. infantum::tdTomato; 50 mg/kg/day i.p., 10 days): 80.0%
parasitemia reduction in the liver (L. infantum::tdTomato; 50 mg/kg/day i.p., 10 days, not significant): 44.4%
parasitemia reduction in the liver (L. infantum::tdTomato; 100 mg/kg/day i.p., 10 days): 90.0%
parasitemia reduction in the spleen (L. infantum::tdTomato; 100 mg/kg/day i.p., 10 days): 91.1%
parasitemia reduction (L. infantum::tdTomato; 100 mg/kg/day, 7-day treatment (as printed in the conclusion)): over 90%
death among treated mice (L. infantum::tdTomato; 50 and 100 mg/kg/day i.p., 10 days): No death
external signs of acute toxicity during and after treatment (L. infantum::tdTomato; 50 and 100 mg/kg/day i.p., 10 days, infected BALB/c mice): No external signs of acute toxicity
IC50 ([1]; Leishmania infantum, 72 h, read-out: IC50 against intracellular amastigotes of L. infantum): 3.1 ± 1.3 µM
effect of the combination of 2 and Sb^III (Bayesian model) ([1]; combination of 2 with Sb^III, in vitro against L. infantum): antagonistic
elog(D) [2]: 1.64
solubility kinetic at 24 h (Kinetic solubility; aqueous buffer, pH 2.0): 125 µM (≈ 35.6 µg/mL)
solubility kinetic at 24 h (Kinetic solubility; pH 7.4, aqueous buffer): > 153 µM

O=C(c1ccc(O)c(Cl)c1)N1CCN(c2cnccn2)CC1 [Compound 1, (3-Chloro-4-hydroxyphenyl)(4-(pyrazin-2-yl)piperazin-1-yl)methanone]
CC50 (THP-1 cells): 542 µM
GSK-3 inhibition [3]: did not inhibit
